The values below are quoted from earlier work in PMC4168267 (Scientific Reports, 2014).

The subject of series [1] is chymotrypsin. Kind of series: chymotrypsin.
Series [2] deals with Gαi1-GDP (Homo sapiens, UniProt P63096). To be noted: R6A reference peptide of the competition assay.
Gαi1-GDP, sequence (P63096 whole entry): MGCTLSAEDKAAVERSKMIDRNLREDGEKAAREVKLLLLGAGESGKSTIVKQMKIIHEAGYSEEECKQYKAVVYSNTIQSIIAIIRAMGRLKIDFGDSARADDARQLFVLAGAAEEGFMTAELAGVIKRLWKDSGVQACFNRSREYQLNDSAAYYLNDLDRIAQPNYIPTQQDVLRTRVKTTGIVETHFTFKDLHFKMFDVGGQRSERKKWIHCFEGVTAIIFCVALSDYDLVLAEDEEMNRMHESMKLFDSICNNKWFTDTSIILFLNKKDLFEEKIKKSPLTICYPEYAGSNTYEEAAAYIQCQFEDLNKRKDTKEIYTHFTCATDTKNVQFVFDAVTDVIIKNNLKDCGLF

Turning to MITWYEFVAGTK, in series [1], the cleaved bond entry is given as “Y5-E, major” and the not cleaved entry is reported as “intact”.

MSQTKRLDDQLYWWEYL [Peptide R6A]: the Kd in series [2] is 0.06 µM.
